Experimental findings from patent US20110257208A1, “COMPOUNDS USEFUL AS FAAH MODULATORS AND USES THEREOF” (priority 2008, published 2011) are described below.

In this assay the target is T1, hFAAH (Homo sapiens, UniProt O00519).
T1 construct: expressed in transfected cells; host or cells: HEK293-TRex (Invitrogen) stably transfected with hFAAH in the pcDNA5-Tet-off vector, or T84 human colon epithelial cells (endogenous hFAAH); used as a microsomal preparation
T1 sequence (O00519 1-579): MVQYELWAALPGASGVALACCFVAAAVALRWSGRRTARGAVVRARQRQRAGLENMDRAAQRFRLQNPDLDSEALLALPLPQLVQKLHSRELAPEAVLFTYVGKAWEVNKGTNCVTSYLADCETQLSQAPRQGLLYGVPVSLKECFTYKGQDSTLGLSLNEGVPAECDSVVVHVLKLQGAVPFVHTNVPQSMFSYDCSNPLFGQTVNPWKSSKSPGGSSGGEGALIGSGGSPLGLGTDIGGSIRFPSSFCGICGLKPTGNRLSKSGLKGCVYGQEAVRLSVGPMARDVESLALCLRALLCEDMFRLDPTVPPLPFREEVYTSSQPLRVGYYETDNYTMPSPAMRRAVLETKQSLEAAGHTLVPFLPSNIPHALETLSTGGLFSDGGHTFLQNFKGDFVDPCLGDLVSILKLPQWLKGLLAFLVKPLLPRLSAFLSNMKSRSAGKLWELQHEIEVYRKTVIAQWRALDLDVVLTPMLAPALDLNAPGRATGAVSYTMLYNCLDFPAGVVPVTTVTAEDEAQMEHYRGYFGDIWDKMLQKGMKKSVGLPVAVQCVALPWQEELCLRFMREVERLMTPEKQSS
The experiment in a line: Fluorimetric assay with hFAAH microsomes (enzymatic, fluorescence based). Type of assay: biochemical. The note with it: compound at 1 uM, AA-AMC substrate. An outline of the steps:
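Microsomes from T84 cells (endogenous hFAAH) or doxycycline-induced HEK293-TRex cells stably expressing hFAAH, 10 μg per well, in 50 mM HEPES pH 7.4, 1 mM EDTA, 1.4 mg/mL BSA with 2 μM AA-AMC. Kinetic fluorescence read (ex 355/em 460 nm, 275 cycles); activity as % inhibition, 7 concentrations in duplicate.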
The term inhibition denotes the relative decrease from the control value, in per cent. Higher therefore signals a response far below the control. Regarding `OCCCCN1Cc2ncnc(Nc3cnc4ccccc4c3)c2C1` [Compound 20, 4-[4-(Quinolin-3-ylamino)-5,7-dihydro-pyrrolo[3,4-d]pyrimidin-6-yl]-butan-1-ol], the inhibition at 1 µM is below 25%.
With `c1ccc2ncc(Nc3ncnc4c3CN(CC3CCOC3)C4)cc2c1` (stereo not drawn) [Compound 13, Quinolin-3-yl-[6-(tetrahydro-furan-3-ylmethyl)-6,7-dihydro-5H-pyrrolo[3,4-d]pyrimidin-4-yl]-amine] the figure was above 25%.
With `CCCN1Cc2ncnc(Nc3cnc4ccccc4c3)c2C1` [Compound 4, (6-Propyl-6,7-dihydro-5H-pyrrolo[3,4-d]pyrimidin-4-yl)-quinolin-3-yl-amine] the figure was below 25%; with `FC(F)(F)c1ccccc1CN1Cc2ncnc(Nc3cnc4ccccc4c3)c2C1` [Compound 95, Quinolin-3-yl-[6-(2-trifluoromethyl-benzyl)-6,7-dihydro-5H-pyrrolo[3,4-d]pyrimidin-4-yl]-amine], above 75%.
Regarding `Cn1nccc1CN1Cc2ncnc(Nc3cnc4ccccc4c3)c2C1` [Compound 24, [6-(2-Methyl-2H-pyrazol-3-ylmethyl)-6,7-dihydro-5H-pyrrolo[3,4-d]pyrimidin-4-yl]-quinolin-3-yl-amine], the inhibition at 1 µM is above 25%.
With `O=C(CN1CCCCC1)N1Cc2ncnc(Nc3cnc4ccccc4c3)c2C1` [Compound 53, 2-Piperidin-1-yl-1-[4-(quinolin-3-ylamino)-5,7-dihydro-pyrrolo[3,4-d]pyrimidin-6-yl]-ethanone] the figure was below 25%.
For `Cc1nc(CN2Cc3ncnc(Nc4cnc5ccccc5c4)c3C2)cs1` [Compound 25, [6-(2-Methyl-thiazol-4-ylmethyl)-6,7-dihydro-5H-pyrrolo[3,4-d]pyrimidin-4-yl]-quinolin-3-yl-amine] the value was below 25%; for `c1ccc2ncc(Nc3ncnc4c3CN(Cc3nccs3)C4)cc2c1` [Compound 76, Quinolin-3-yl-(6-thiazol-2-ylmethyl-6,7-dihydro-5H-pyrrolo[3,4-d]pyrimidin-4-yl)-amine], above 25%; for `CC(CN1Cc2ncnc(Nc3cnc4ccccc4c3)c2C1)c1ccccc1` (stereo not drawn) [Compound 19, [6-(2-Phenyl-propyl)-6,7-dihydro-5H-pyrrolo[3,4-d]pyrimidin-4-yl]-quinolin-3-yl-amine], above 75%.
With `O=S(=O)(c1ccccc1Cl)N1Cc2ncnc(Nc3cnc4ccccc4c3)c2C1` [Compound 72, [6-(2-Chloro-benzenesulfonyl)-6,7-dihydro-5H-pyrrolo[3,4-d]pyrimidin-4-yl]-quinolin-3-yl-amine] the figure was above 50%.
As to `c1ccc2ncc(Nc3ncnc4c3CN(C3CCCC3)C4)cc2c1` [Compound 41, (6-Cyclopentyl-6,7-dihydro-5H-pyrrolo[3,4-d]pyrimidin-4-yl)-quinolin-3-yl-amine], the inhibition at 1 µM was above 50%.
With `c1ccc2ncc(Nc3ncnc4c3CN(CC3CCCCC3)C4)cc2c1` [Compound 2, (6-Cyclohexylmethyl-6,7-dihydro-5H-pyrrolo[3,4-d]pyrimidin-4-yl)-quinolin-3-yl-amine] the figure was above 75%; with `CC(C1CCC1)N1Cc2ncnc(Nc3cnc4ccccc4c3)c2C1` (stereo not drawn) [Compound 36, [6-(1-Cyclobutyl-ethyl)-6,7-dihydro-5H-pyrrolo[3,4-d]pyrimidin-4-yl]-quinolin-3-yl-amine], above 25%.
For `FC(F)Oc1ccccc1CN1Cc2ncnc(Nc3cnc4ccccc4c3)c2C1` [Compound 105, [6-(2-Difluoromethoxy-benzyl)-6,7-dihydro-5H-pyrrolo[3,4-d]pyrimidin-4-yl]-quinolin-3-yl-amine] the value was above 75%.
For `CCc1ccccc1CN1Cc2ncnc(Nc3cnc4ccccc4c3)c2C1` [Compound 90, [6-(2-Ethyl-benzyl)-6,7-dihydro-5H-pyrrolo[3,4-d]pyrimidin-4-yl]-quinolin-3-yl-amine] the value was above 75%; for `c1ccc2ncc(Nc3ncnc4c3CN(CC3CC3)C4)cc2c1` [Compound 5, (6-Cyclopropylmethyl-6,7-dihydro-5H-pyrrolo[3,4-d]pyrimidin-4-yl)-quinolin-3-yl-amine], below 25%; for `O=S(=O)(c1ccccc1F)N1Cc2ncnc(Nc3cnc4ccccc4c3)c2C1` [Compound 71, [6-(2-Fluoro-benzenesulfonyl)-6,7-dihydro-5H-pyrrolo[3,4-d]pyrimidin-4-yl]-quinolin-3-yl-amine], above 25%.
For the compound `Cn1nccc1S(=O)(=O)N1Cc2ncnc(Nc3cnc4ccccc4c3)c2C1` [Compound 60, [6-(2-Methyl-2H-pyrazole-3-sulfonyl)-6,7-dihydro-5H-pyrrolo[3,4-d]pyrimidin-4-yl]-quinolin-3-yl-amine], the inhibition at 1 µM was above 50%.
With `COc1cccc(CN2Cc3ncnc(Nc4cnc5ccccc5c4)c3C2)c1` [Compound 106, [6-(3-Methoxy-benzyl)-6,7-dihydro-5H-pyrrolo[3,4-d]pyrimidin-4-yl]-quinolin-3-yl-amine] the figure was above 75%; with `CC(C)C(C)N1Cc2ncnc(Nc3cnc4ccccc4c3)c2C1` (stereo not drawn) [Compound 32, [6-(1,2-Dimethyl-propyl)-6,7-dihydro-5H-pyrrolo[3,4-d]pyrimidin-4-yl]-quinolin-3-yl-amine], above 25%.
For `CCN1Cc2ncnc(Nc3cnc4ccccc4c3)c2C1` [Compound 3, (6-Ethyl-6,7-dihydro-5H-pyrrolo[3,4-d]pyrimidin-4-yl)-quinolin-3-yl-amine] the value was below 25%.
With `c1ccc2ncc(Nc3ncnc4c3CN(C3COC3)C4)cc2c1` [Compound 44, (6-Oxetan-3-yl-6,7-dihydro-5H-pyrrolo[3,4-d]pyrimidin-4-yl)-quinolin-3-yl-amine] the figure was below 25%; with `Cc1nc(C)c(CN2Cc3ncnc(Nc4cnc5ccccc5c4)c3C2)s1` [Compound 28, [6-(2,4-Dimethyl-thiazol-5-ylmethyl)-6,7-dihydro-5H-pyrrolo[3,4-d]pyrimidin-4-yl]-quinolin-3-yl-amine], above 75%; with `CC(C)(C)CCN1Cc2ncnc(Nc3cnc4ccccc4c3)c2C1` [Compound 15, [6-(3,3-Dimethyl-butyl)-6,7-dihydro-5H-pyrrolo[3,4-d]pyrimidin-4-yl]-quinolin-3-yl-amine], above 25%.
The compound `CC(C)Oc1ccccc1CN1Cc2ncnc(Nc3cnc4ccccc4c3)c2C1` [Compound 109, [6-(2-Isopropoxy-benzyl)-6,7-dihydro-5H-pyrrolo[3,4-d]pyrimidin-4-yl]-quinolin-3-yl-amine] had an inhibition at 1 µM above 50%.
With `c1cc2c(c(CN3Cc4ncnc(Nc5cnc6ccccc6c5)c4C3)c1)OCC2` [Compound 101, [6-(2,3-Dihydro-benzofuran-7-ylmethyl)-6,7-dihydro-5H-pyrrolo[3,4-d]pyrimidin-4-yl]-quinolin-3-yl-amine] the figure was above 75%; with `c1ccc2ncc(Nc3ncnc4c3CN(Cc3cscn3)C4)cc2c1` [Compound 75, Quinolin-3-yl-(6-thiazol-4-ylmethyl-6,7-dihydro-5H-pyrrolo[3,4-d]pyrimidin-4-yl)-amine], above 25%.
